Experiments:
[1] = Particle size and polydispersity index of nanoparticle compositions (Zetasizer Nano ZS); type: physicochemical
How it was run: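 Formulations of ionizable lipid, DSPC, cholesterol and PEG-DMG (50:10:38.5:1.5 mol %) carrying Luc or hEPO mRNA with all uridines as N1-methyl pseudouridine. Dynamic light scattering in 1×PBS gave particle size and polydispersity; zeta potential read in 15 mM PBS.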

[2] = Encapsulation efficiency of RNA in nanoparticle compositions (RIBOGREEN assay); type: physicochemical
How it was run: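 Lipid nanoparticles (ionisable lipid:DSPC:cholesterol:PEG-DMG 50:10:38.5:1.5 mol %) carrying N1-methylpseudouridine luciferase or hEPO mRNA diluted to about 5 μg/mL in TE, pH 7.5, with or without 2% Triton X-100, 15 min at 37° C. RiboGreen fluorescence (ex ~480, em ~520 nm) blank-subtracted; free RNA = intact/disrupted signal.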

luciferase (Luc) mRNA [3] = experiment: Luciferase expression (whole body bioluminescence) after intravenous administration to mice; type: in vivo; settings: intravenous, luciferase; for Novel lipid/MC3 ratio, i.v.: Table 3G, 6 hr. timepoint, relative to MC3; for Novel lipid/MC3 expression ratio, i.v.: 6 hr. time point, relative to MC3 formulation
How it was run: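 Luc mRNA nanoparticles were given IV at 0.5 mg/kg to groups of six mice, and whole-body bioluminescent flux was imaged 3, 6 and 24 h post-dose. Flux AUC for each lipid formulation was reported as a ratio to the MC3 reference formulation.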

modified luciferase = experiment: Luciferase expression in liver, lung, spleen and femur 6 hours after intravenous administration to mice; type: in vivo; settings: 6 hours after intravenous 0.5 mpk, mice
How it was run: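 Mice (n=3) got a single 0.5 mpk IV dose of each nanoparticle composition, with MC3 and PBS controls alongside. Organ luminescence flux was read 6 h post-dose.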

[4] = tested on: modified luciferase (Luc) mRNA and H10 mRNA; experiment: Expression after intramuscular administration of formulations including Luc mRNA and H10 mRNA; type: in vivo
Procedure: Sample formulations including both modified luciferase (Luc) mRNA and H10 mRNA were prepared and administered intramuscularly and the resulting expression and immunogenicity were evaluated simultaneously. Formulations including compounds according to Formula (I), (IA), (IB), (II), (IIa), (IIb), (IIc), (IId), (IIe), (IIf), (IIg), or (III) were prepared and administered at doses of 0.001 and 0.01 mpk (e.g., doses of 0.0005 mpk of a formulation including Luc mRNA and a formulation including H10 mRNA or doses of 0.005 mpk of a formulation including Luc mRNA and a formulation including H10 mRNA).
The fluxes measured upon intravenous and intramuscular administration are compared in Table 6. Fluxes are presented as fold increase over that measured for MC3 formulations.

IL-6, IP-10 = experiment: Cytokine induction (IL-6, IP-10) in mice 6 hours after intravenous administration; type: in vivo; design: unit not given here; settings: intravenous 0.5 mpk
How it was run: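 IL-6 and IP-10 concentrations determined 6 hours after a single intravenous 0.5 mpk dose of lipid nanoparticle formulation in mice, with MC3 and PBS as comparators.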

hEPO mRNA [5] = experiment: hEPO expression and cytokine induction after intravenous administration to mice; type: in vivo; settings: mice
Procedure: FIG. 17 is a graph showing the hEPO mRNA expression in CD1-mice measured 3 h (left block), 6 h (middle block) and 24 h (right block) after intravenous administration of various nanoparticle compositions. Numbers 1-13 refer to compositions containing an mRNA expressing hEPO and the following: 1: Compound 147, 2: Compound 184, 3: Compound 232; 4: Compound 189; 5: Compound 200; 6: Compound 233; 7: Compound 234; 8: Compound 235; 9: Compound 237; 10: Compound 239; 11: Compound 243; 12: MC3; 13: PBS. […]
Sample formulations of nanoparticle compositions including different lipids are generally first evaluated according to Luc expression in vivo. The activity of several such compositions was further evaluated using an mRNA encoding hEPO. Nanoparticle compositions including Compounds 6, 18, 25, 30, 108-112, 60, and 122, or MC3 were prepared according to Example 2.
(§1) The expression of hEPO and cytokine induction in mice intravenously administered a nanoparticle composition at a dose of 0.5 mpk were measured at 3, 6, and 24 hours. […] The expression of hEPO in mice intramuscularly administered a nanoparticle composition from Table 1B at a dose of 0.01 mpk were measured at 3, 6, and 24 hours. […] (see
Table 12 compares the nanoparticle compositions including compounds according to Formula (I), (IA), (IB), (II), (IIa), (IIb), (IIc), (IId), (IIe), (IIf), (IIg), or (III) to the compositions including MC3 on the basis of expression and flux levels. […] Thus, these lipids may be useful in nanoparticle composition therapeutics.

CD-1 mice = experiment: Luciferase expression after intravenous delivery of luciferase mRNA LNPs (bioluminescent imaging); type: in vivo; settings: intravenous 0.5 mg/kg mRNA dose
Procedure: Whole body and ex vivo organ bioluminescent imaging of mice: CD-1 mice were injected 15 minutes prior to the imaging timepoint intraperitoneally (IP) with 200 μL Xenolight D-luciferin K+ salt, diluted in PBS just prior to use to a concentration of 15 mg/mL. Ex vivo imaging of organs was completed, within 25 minutes of luciferin administration. All images were quantified by region of interest for total flux.
[…] […] (See Semple, S.C. et al., Nature Biotech. 2010. 28, 172-176, Jayaraman, M., et al. Angew. Chem. Int. Ed. 2012, 51, 8529-8533, the entire contents of each of which are incorporated by reference herein in their entireties). To evaluate the efficiency of the new amino lipids, LNPs using the novel compounds were tested in vivo in mice using luciferase mRNA as a reporter. An MC3 LNP was included as a control in each experiment, enabling the comparison of LNPs from experiment to experiment. Measured luciferase activity also enabled the determination of protein bio-distribution.

[6] = Chemical stability of lipids in ethanol at room temperature and 37° C. (lipid purity); type: physicochemical
Procedure: Ester linkages were previously reported to trigger metabolism by esterases in vivo. (See Fukami, T. et al. Drug Metab. Pharmacokinet. 2012, 27, 466-477, the content of which is incorporated by reference herein in its entirety). […] (See Maier M. A., Mol. Ther. 2013, 21, 1570-1578, the content of which is incorporated herein in its entirety) First, the chemical stability of the lipids was evaluated by measuring ethanol stability at room temperature and 37° C. (Table 39). […] LNPs formed with compound 138 were larger, with a surface pKa>7. […] Removal of one ester function (compound 136) afforded LNPs with improved physiochemical characteristics and lower LNP surface pKa.

luciferase (Luc) mRNA [7] = experiment: Luciferase expression after intramuscular administration to mice; type: in vivo; settings: intramuscular
Source text: The numbers 1-7 in this figure correspond to MC3, Compounds 168-170, and 173-175 respectively.
FIGS. 18A and 18B show the results of luciferase expression measured upon intramuscular administration of various nanoparticle compositions to CD-1 mice at 0.01 mpk. FIG. 18A is a bar graph showing total flux at 6 hr after administration. The numbers above each bar indicate the expression ratio relative to MC3. […] Numbers 1-11 in the Figures refer to compositions containing the following: 1: MC3, 2: Compound 143, 3: Compound 49; 4: Compound 113; 5: Compound 61; 6: Compound 72; 7: Compound 75; 8: Compound 71; 9: Compound 128; 10: Compound 156; 11: Compound 157.
The numbers 1-9 in this figure correspond to MC3, and Compounds 178, 181, 182, 218, 198, 200, 233, and 239, respectively.
The total flux (measured by area under the curve, AUC) induced by administration of a formulation including a given lipid relative to that induced by administration of a formulation including MC3 was also measured for several lipids.
Sample formulations including modified luciferase (Luc) mRNA prepared and administered intramuscularly and the resulting expression and immunogenicity were evaluated simultaneously. Formulations including compounds according to Formula (I), (IA), (IB), (II), (IIa), (IIb), (IIc), (IId), (IIe), (IIf), (IIg), or (III) were prepared and administered at dose of and 0.01 mpk.

hEPO mRNA [8] = experiment: hEPO expression after intramuscular administration to mice; type: in vivo; settings: intramuscular, hEPO
Procedure: The numbers 1-11 in this figure correspond to MC3, Compounds 18, 25, 30, 108-112, 60, and 122 respectively.
as §1

[9] = Table 1A, lipid:DSPC:cholesterol:PEG-DMG 50:10:38.5:1.5 mol %
[10] = Table 1C, compositions for subcutaneous administration
[11] = Table 1B, formulated with hEPO mRNA

| Size [1, 9] | EE [2, 9] | Cytokine induction, IL-6 (IL-6, IP-10) | Cytokine induction, IP-10 (IL-6, IP-10) | Lipid Purity, t = 96 h, 25° C. [6] | Lipid Purity, t = 96 h, 37° C. [6] | Lipid Purity, t = 0 [6] | Structure (SMILES) | Size [1, 10] | Novel lipid/MC3 ratio, i.v. (luciferase (Luc) mRNA [3]) | Novel lipid/MC3 expression ratio, i.v. (luciferase (Luc) mRNA [3]) | Total Flux, Femur (modified luciferase) | Total Flux, Liver (modified luciferase) | Total Flux, Lung (modified luciferase) | Total Flux, Spleen (modified luciferase) | luciferase activity/expression compared to MC3 LNP control (words) (CD-1 mice) | further results |
| --- | --- | --- | --- | --- | --- | --- | --- | --- | --- | --- | --- | --- | --- | --- | --- | --- |
| – | – | 136.18 | 316.01 | 93.21% | 94.29% | 93.80% | CCCCC/C=C\C/C=C\CCCCCCCCN(CCO)CCCCCCCC(=O)OC(CCCCCCCC)CCCCCCCC [Compound 6, Heptadecan-9-yl 8-((2-hydroxyethyl)((9Z,12Z)-octadeca-9,12-dien-1-yl)amino)octanoate] | – | – | – | 2.15E+06 | 1.09E+09 | 4.30E+06 | 3.03E+07 | Equivalent expression to MC3 LNPs | hEPO expression, 3 h (hEPO mRNA [5]; intravenous 0.5 mpk, 3 h): 2.31e+06 pg/mL; Cytokine expression, IL-6 (6 h) (hEPO mRNA [5]; intravenous 0.5 mpk, 6 h): 10.15 pg/mL; Cytokine expression, IP-10 (6 h) (hEPO mRNA [5]; intravenous 0.5 mpk, 6 h): 116.66 pg/mL; hEPO expression, 6 h (hEPO mRNA [5]; intravenous 0.5 mpk, 6 h): 3.17e+06 pg/mL; hEPO expression, 24 h (hEPO mRNA [5]; intravenous 0.5 mpk, 24 h): 1.11e+06 pg/mL; hEPO concentrations compared with MC3 formulations (hEPO mRNA [5]; intravenous, 0.5 mpk, 3, 6 and 24 hours): higher hEPO concentrations than MC3 formulations at each time point |
| 102.3 nm | 91.4% | – | – | – | – | – | CCCCCCCCCOC(=O)CCCCCCCN(CCCCCCCC(=O)OC(CCCCCCCC)CCCCCCCC)CCCN/C(=N/C#N)N(C)C [Compound 168, Heptadecan-9-yl (Z)-8-((3-(2-cyano-3,3-dimethylguanidino)propyl)(8-(nonyloxy)-8-oxooctyl)amino)octanoate] | – | – | 0.11 | – | – | – | – | – | Size ([1]; Table 1D, compositions for subcutaneous administration, # formulated with hEPO mRNA): 87.4 nm; Size ([1]; Table 1E, compositions for subcutaneous administration): 85.0 nm; Novel lipid/MC3 expression ratio, i.m. Luc (luciferase (Luc) mRNA [7]; luciferase, 6 hr. time point, relative to MC3 formulation): 16.0; Novel lipid/MC3 expression ratio, i.m. hEPO (hEPO mRNA [8]; 6 hr. time point, relative to MC3 formulation): 6.3 |
| 91.5 nm | – | – | – | – | – | – | CCCCCCCCCOC(=O)CCCCCCCN(CCCCCCCC(=O)OC(CCCCCCCC)CCCCCCCC)CCCNC(=O)N(C)C [Compound 110, Heptadecan-9-yl 8-((3-(3,3-dimethylureido)propyl)(8-(nonyloxy)-8-oxooctyl)amino)octanoate] | 91.5 nm | 0.19 | 0.19 | – | 2.30E+08 | 5.76E+06 | 1.41E+08 | – | Size [1, 11]: 73.3 nm; EE [2, 11]: 92.39%; Total flux 6 hours after intramuscular administration, 0.01 mpk Dose (luciferase (Luc) mRNA [7]; Luc mRNA, 0.01 mpk, 6 hours): 1.21E+08 p/s; Novel lipid/MC3 ratio, i.m. hEPO (hEPO mRNA [8]; Table 3G, 6 hr. timepoint, relative to MC3): 1.2 |
| – | 96.99% | 69.54 | 1362.81 | 97.67% | 98.10% | 97.017% | CCCCCCCCC(CCCCCCCC)OC(=O)CCCCCCCN(CCO)CCCCCCCC(=O)OC(CCCCCCCC)CCCCCCCC [compound 29, Di(heptadecan-9-yl) 8,8′-((2-hydroxyethyl)azanediyl)dioctanoate] | – | – | – | 9.56E+05 | 5.20E+08 | 9.83E+05 | 5.99E+06 | lower luciferase activity | – |

| Structure (SMILES) | Size [1, 9] | EE [2, 9] | Cytokine induction, IL-6 (IL-6, IP-10) | Cytokine induction, IP-10 (IL-6, IP-10) | Lipid Purity, t = 96 h, 25° C. [6] | Lipid Purity, t = 96 h, 37° C. [6] | Lipid Purity, t = 0 [6] | Size [1, 10] | Novel lipid/MC3 ratio, i.v. (luciferase (Luc) mRNA [3]) | Novel lipid/MC3 expression ratio, i.v. (luciferase (Luc) mRNA [3]) | Total Flux, Femur (modified luciferase) | Total Flux, Liver (modified luciferase) | Total Flux, Lung (modified luciferase) | Total Flux, Spleen (modified luciferase) | luciferase activity/expression compared to MC3 LNP control (words) (CD-1 mice) | further results |
| --- | --- | --- | --- | --- | --- | --- | --- | --- | --- | --- | --- | --- | --- | --- | --- | --- |
| CCCCCCCCCOC(=O)CCCCCCCN(CCCCO)CCCCCCCC(=O)OC(CCCCCCCC)CCCCCCCC [Compound 20, Heptadecan-9-yl 8-((4-hydroxybutyl)(8-(nonyloxy)-8-oxooctyl)amino) octanoate] | 86.7 nm | 96.72% | 126.83 | 2468.24 | – | – | – | 86.7 nm | 0.80 | 0.80 | 1.31E+07 | 1.84E+09 | 2.66E+07 | 1.43E+08 | – | Expression upon intramuscular administration ([4]; doses of 0.001 and 0.01 mpk, 6 hours): highest expression at both dose levels; Fold increase in Luc expression over MC3 upon intramuscular administration ([4]; intramuscular): highest fold increase |
